# Reference: ChEMBL document CHEMBL5500420, “Discovery of BI-9508, a Brain-Penetrant GPR88-Receptor-Agonist Tool Compound for In Vivo Mouse Studies” (J Med Chem, 2024)
# Columns and labels:
# [1] = Solubility of compound at pH 7 by high-throughput analysis; format: physicochemical; settings: buffer
# [2] = Protein binding in mouse plasma at 1 uM incubated for 2 hrs by equilibrium dialysis based HPLC-MS/MS analysis; format: ADME, cell-free; settings: read-out: PPB (converted)
# [3] = molecular target: T1, G protein-coupled receptor 88 (Mus musculus, UniProt Q9EPB7); assay: Agonist activity at GPR88 in wildtype mouse striatal membrane assessed as stimulation of [35S]-GTPgammaS binding incubated for 1 hrs in presence of GDP by liquid scintillation counter
# [4] = molecular target: T1, G protein-coupled receptor 88; assay: Agonist activity at mouse GPR88 transfected in HEK293 cells incubated for 10 mins by Gi1 BRET assay; format: functional, cell-based
# [5] = molecular target: G protein-coupled receptor 88 (Homo sapiens, UniProt Q9GZN0); assay: Agonist activity at human GPR88 transfected in HEK293 cells incubated for 10 mins by Gi1 BRET assay
# [6] = test system: P-gp; assay: Apparent permeability in P-gp overexpressing MDCK-MDR1 cells at 1 uM incubated upto 2 hrs; format: ADME, cell-based, Canis lupus familiaris; settings: dog
# T1 sequence (Q9EPB7 whole entry): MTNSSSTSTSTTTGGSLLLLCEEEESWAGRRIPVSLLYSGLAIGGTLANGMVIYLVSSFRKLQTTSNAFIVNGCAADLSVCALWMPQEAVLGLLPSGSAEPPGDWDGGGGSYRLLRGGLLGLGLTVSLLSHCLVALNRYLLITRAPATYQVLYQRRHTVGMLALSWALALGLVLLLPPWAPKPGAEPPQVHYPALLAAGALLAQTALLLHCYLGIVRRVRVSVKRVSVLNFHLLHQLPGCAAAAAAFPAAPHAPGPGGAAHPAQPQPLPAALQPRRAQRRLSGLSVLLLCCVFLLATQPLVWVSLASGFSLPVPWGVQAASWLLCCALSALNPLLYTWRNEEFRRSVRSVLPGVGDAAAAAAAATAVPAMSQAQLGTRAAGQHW
# Chain of G protein-coupled receptor 88 (Homo sapiens, UniProt Q9GZN0) (Q9GZN0 whole entry): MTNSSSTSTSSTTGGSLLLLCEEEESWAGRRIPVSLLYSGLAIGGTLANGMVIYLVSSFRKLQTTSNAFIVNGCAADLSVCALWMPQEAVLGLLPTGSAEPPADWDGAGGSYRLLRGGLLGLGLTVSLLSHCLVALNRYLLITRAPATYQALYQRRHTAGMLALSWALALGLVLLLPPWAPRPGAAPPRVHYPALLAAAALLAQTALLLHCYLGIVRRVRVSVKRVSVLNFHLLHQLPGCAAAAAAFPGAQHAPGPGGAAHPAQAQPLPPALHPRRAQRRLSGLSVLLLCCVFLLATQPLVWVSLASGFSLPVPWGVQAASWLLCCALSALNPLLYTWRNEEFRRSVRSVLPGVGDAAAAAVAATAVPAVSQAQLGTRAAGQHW
smiles,measurement,setting,value
CC(C)Oc1ccc(-c2ccc(N(CCOC(F)F)C(=O)[C@@H]3C[C@H]3c3ccncn3)c3ncnn23)cc1,solubility,[1],0.011 mg/mL
same,"fraction unbound at 2 h, 1 µM",[2],0.062
COc1cc(-c2ccc(OC(C)C)cc2)ccc1N(C[C@@H](N)[C@@H](C)OC)C(=O)[C@@H]1C[C@H]1c1ccncn1,EC50,[3],6.1 µM
same,EC50,[4],0.226 µM
same,EC50,[5],0.168 µM
COc1cc(-c2ccc(O[C@@H](C)C(F)(F)F)nc2)ccc1N(CCOC(F)F)C(=O)[C@@H]1C[C@H]1c1ccncn1,"fraction unbound at 2 h, 1 µM",[2],0.004
CO[C@H](C)[C@H](N)CN(C(=O)[C@@H]1C[C@H]1c1ccncn1)c1ccc(-c2ccc(OC(C)C)nc2)cc1,"fraction unbound at 2 h, 1 µM",[2],0.052
CC(C)Oc1ccc(-c2ccc(N(CCOC(F)F)C(=O)[C@@H]3C[C@H]3c3ccncn3)c3c2cnn3C)cc1,EC50,[4],0.094 µM
CO[C@H](C)[C@H](N)CN(C(=O)[C@@H]1C[C@H]1c1ccncn1)c1ccc(-c2ccc(OC(C)C)cc2)cc1,EC50,[5],> 99 µM
Cc1nnc2n1-c1sc(CCC(=O)N3CCOCC3)cc1C(c1ccccc1Cl)=NC2 [APAFANT],"Papp at 2 h, 1 µM",[6],30 nm/s
